Assay results as given in PubChem BioAssay AID1745844 (Carcinogenic Potency Database (CPDB), 2022).
Where “and” joins values, the source holds several entries; their conditions need not be identical. Equal values may be shown once. Calls of active or inactive are those of the source. How the calls were made is not given here.

Test system: rodent lifetime carcinogenesis bioassay, tumor incidence TD50
Test: carcinogenic potency in animals, long-term in vivo studies, CPDB compilation (AID 1745844)
Conditions: in feed

Which TD50 (hamster, strain Syrian Golden, females, site: any site (literature study), lesion: several types, types named in the paper, dosed 100 weeks, study length 114 weeks) does the source give for `ClC1=C(Cl)[C@]2(Cl)[C@@H]3[C@@H]4C[C@@H]([C@H]5O[C@@H]45)[C@@H]3[C@@]1(Cl)C2(Cl)Cl` here?
The TD50 was 355 mg/kg/day (inactive).

And the TD50 (hamster, strain Syrian Golden, females, site: liver, lesion: hepatoma, dosed 100 weeks, study length 114 weeks)?
The TD50 was 176 mg/kg/day (inactive).

What about the carcinogen call (hamster, strain Syrian Golden, females, site: lung, lesion: one or several types, types not named, dosed 100 weeks, study length 114 weeks) of the same compound?
Its carcinogen call is “negative (inactive)”.

What about the TD50 (hamster, strain Syrian Golden, males, site: any site (literature study), lesion: several types, types named in the paper, dosed 114 weeks, study length 114 weeks) of the same compound?
The TD50 was 69.9 mg/kg/day (inactive).

And the TD50 (hamster, strain Syrian Golden, males, site: liver, lesion: hepatoma, dosed 114 weeks, study length 114 weeks)?
Its TD50 is 198 mg/kg/day (inactive).

And the TD50 (hamster, strain Syrian Golden, males, site: lung, lesion: adenoma, dosed 114 weeks, study length 114 weeks)?
Its TD50 is 732 mg/kg/day (inactive).

What about the carcinogen call (mouse, strain B6C3F1, females, site: any site (literature study), lesion: several types, types named in the paper, dosed 80 weeks, study length 91 weeks) of the same compound?
The carcinogen call was “negative (inactive)”.

What about the TD50 (mouse, strain B6C3F1, females, site: liver, lesion: hepatocellular adenoma + hepatocellular carcinoma + neoplastic nodule, dosed 80 weeks, study length 91 weeks) of the same compound?
The TD50 was 1.09 mg/kg/day.

And the TD50 (mouse, strain B6C3F1, females, site: lung, lesion: alveolar/bronchiolar adenoma + alveolar/bronchiolar carcinoma, dosed 80 weeks, study length 91 weeks)?
Its TD50 is 5.05 mg/kg/day.

And the TD50 (mouse, strain B6C3F1, males, site: any site (literature study), lesion: several types, types named in the paper, dosed 80 weeks, study length 91 weeks)?
Its TD50 is 1.06 mg/kg/day (inactive).

What about the TD50 (mouse, strain B6C3F1, males, site: liver, lesion: hepatocellular adenoma + hepatocellular carcinoma + neoplastic nodule, dosed 80 weeks, study length 91 weeks) of the same compound?
The TD50 was 1.04 mg/kg/day.

What about the TD50 (mouse, strain B6C3F1, males, site: liver, lesion: hepatocellular carcinoma, dosed 80 weeks, study length 89 weeks) of the same compound?
The TD50 was 1.35 mg/kg/day.

What about the TD50 (mouse, strain B6C3F1, males, site: lung, lesion: alveolar/bronchiolar adenoma + alveolar/bronchiolar carcinoma, dosed 80 weeks, study length 91 weeks) of the same compound?
Its TD50 is 24.7 mg/kg/day.

And the TD50 (mouse, strain C3HeB/Fe, both sexes, site: any site (literature study), lesion: benign tumor, dosed 104 weeks, study length 104 weeks)?
Its TD50 is 3.1 mg/kg/day.

What about the TD50 (mouse, strain C3HeB/Fe, both sexes, site: liver, lesion: hepatocellular adenoma, dosed 104 weeks, study length 104 weeks) of the same compound?
Its TD50 is 4.09 mg/kg/day.

And the TD50 (mouse, strain C3HeB/Fe, both sexes, site: liver, lesion: hepatocellular carcinoma, dosed 104 weeks, study length 104 weeks)?
Its TD50 is 167 mg/kg/day.

What about the TD50 (mouse, strain C3HeB/Fe, both sexes, site: liver, lesion: hepatoma, dosed 104 weeks, study length 104 weeks) of the same compound?
Its TD50 is 3.08 mg/kg/day.

What about the TD50 (mouse, strain CF-1, females, site: liver, lesion: liver-cell tumor, type B, dosed 90 weeks, study length 90 weeks) of the same compound?
Its TD50 is 2.59 mg/kg/day.

What about the TD50 (mouse, strain CF-1, females, site: liver, lesion: liver-cell tumor, type B, dosed 106 weeks, study length 106 weeks) of the same compound?
The TD50 was 3.96 mg/kg/day.

What about the TD50 (mouse, strain CF-1, females, site: liver, lesion: liver-cell tumor, type B, dosed 108 weeks, study length 128 weeks) of the same compound?
The TD50 was 9.72 mg/kg/day.

What about the TD50 (mouse, strain CF-1, females, site: liver, lesion: liver-cell tumor, type B, dosed 122 weeks, study length 138 weeks) of the same compound?
Its TD50 is 1.96 mg/kg/day.

What about the TD50 (mouse, strain CF-1, females, site: liver, lesion: liver-cell tumor, type B, dosed 128 weeks, study length 128 weeks) of the same compound?
The TD50 was 12.1 mg/kg/day.

And the TD50 (mouse, strain CF-1, females, site: liver, lesion: liver-cell tumor, dosed 110 weeks, study length 110 weeks)?
Its TD50 is 1.59 mg/kg/day.

And the TD50 (mouse, strain CF-1, females, site: liver, lesion: several types, types named in the paper, dosed 90 weeks, study length 90 weeks)?
Its TD50 is 1.05 mg/kg/day.

What about the TD50 (mouse, strain CF-1, females, site: liver, lesion: several types, types named in the paper, dosed 106 weeks, study length 106 weeks) of the same compound?
Its TD50 is 1.16 mg/kg/day.

What about the TD50 (mouse, strain CF-1, females, site: liver, lesion: several types, types named in the paper, dosed 108 weeks, study length 128 weeks) of the same compound?
Its TD50 is 1.49 mg/kg/day.

And the TD50 (mouse, strain CF-1, females, site: liver, lesion: several types, types named in the paper, dosed 110 weeks, study length 110 weeks)?
Its TD50 is 0.567 mg/kg/day.

And the TD50 (mouse, strain CF-1, females, site: liver, lesion: several types, types named in the paper, dosed 122 weeks, study length 138 weeks)?
The TD50 was 0.642 mg/kg/day.

And the TD50 (mouse, strain CF-1, females, site: liver, lesion: several types, types named in the paper, dosed 128 weeks, study length 128 weeks)?
Its TD50 is 3.11 mg/kg/day.

And the carcinogen call (mouse, strain CF-1, females, site: lung, lesion: adenoma, dosed 90 weeks, study length 90 weeks)?
The carcinogen call was “negative (inactive)”.

And the TD50 (mouse, strain CF-1, females, site: lung, lesion: adenoma, dosed 106 weeks, study length 106 weeks)?
The TD50 was 5.69 mg/kg/day (inactive).

What about the carcinogen call (mouse, strain CF-1, females, site: lung, lesion: adenoma, dosed 108 weeks, study length 128 weeks) of the same compound?
The carcinogen call was “negative (inactive)”.

And the TD50 (mouse, strain CF-1, females, site: lung, lesion: adenoma, dosed 122 weeks, study length 138 weeks)?
The TD50 was 0.606 mg/kg/day (inactive).

What about the carcinogen call (mouse, strain CF-1, females, site: lung, lesion: adenoma, dosed 128 weeks, study length 128 weeks) of the same compound?
Its carcinogen call is “negative (inactive)”.

And the carcinogen call (mouse, strain CF-1, females, site: lung, lesion: carcinoma, dosed 90 weeks, study length 90 weeks)?
Its carcinogen call is “negative (inactive)”.

What about the carcinogen call (mouse, strain CF-1, females, site: lung, lesion: carcinoma, dosed 106 weeks, study length 106 weeks) of the same compound?
Its carcinogen call is “negative (inactive)”.

What about the carcinogen call (mouse, strain CF-1, females, site: lung, lesion: carcinoma, dosed 108 weeks, study length 128 weeks) of the same compound?
The carcinogen call was “negative (inactive)”.

And the TD50 (mouse, strain CF-1, females, site: lung, lesion: carcinoma, dosed 122 weeks, study length 138 weeks)?
The TD50 was 1.78 mg/kg/day (inactive).

What about the carcinogen call (mouse, strain CF-1, females, site: lung, lesion: carcinoma, dosed 128 weeks, study length 128 weeks) of the same compound?
Its carcinogen call is “negative (inactive)”.

And the carcinogen call (mouse, strain CF-1, females, site: lung, lesion: one or several types, types not named, dosed 110 weeks, study length 110 weeks)?
Its carcinogen call is “negative (inactive)”.

And the TD50 (mouse, strain CF-1, males, site: liver, lesion: liver-cell tumor, type B, dosed 110 weeks, study length 124 weeks)?
The TD50 was 4.02 mg/kg/day.

And the TD50 (mouse, strain CF-1, males, site: liver, lesion: liver-cell tumor, type B, dosed 112 weeks, study length 128 weeks)?
Its TD50 is 4.66 mg/kg/day.

And the TD50 (mouse, strain CF-1, males, site: liver, lesion: liver-cell tumor, type B, dosed 120 weeks, study length 134 weeks)?
The TD50 was 1.68 mg/kg/day.

And the TD50 (mouse, strain CF-1, males, site: liver, lesion: liver-cell tumor, type B, dosed 128 weeks, study length 128 weeks)?
Its TD50 is 5.12 mg/kg/day and 6.58 mg/kg/day.

What about the TD50 (mouse, strain CF-1, males, site: liver, lesion: liver-cell tumor, dosed 110 weeks, study length 110 weeks) of the same compound?
Its TD50 is 1.28 mg/kg/day.

And the carcinogen call (mouse, strain CF-1, males, site: liver, lesion: several types, types named in the paper, dosed 110 weeks, study length 110 weeks)?
The carcinogen call was “positive”.

What about the TD50 (mouse, strain CF-1, males, site: liver, lesion: several types, types named in the paper, dosed 110 weeks, study length 124 weeks) of the same compound?
The TD50 was 0.713 mg/kg/day.

What about the TD50 (mouse, strain CF-1, males, site: liver, lesion: several types, types named in the paper, dosed 112 weeks, study length 128 weeks) of the same compound?
Its TD50 is 1.12 mg/kg/day.

What about the TD50 (mouse, strain CF-1, males, site: liver, lesion: several types, types named in the paper, dosed 120 weeks, study length 134 weeks) of the same compound?
The TD50 was 0.547 mg/kg/day.

And the TD50 (mouse, strain CF-1, males, site: liver, lesion: several types, types named in the paper, dosed 128 weeks, study length 128 weeks)?
Its TD50 is 0.913 mg/kg/day and 1.91 mg/kg/day.

What about the carcinogen call (mouse, strain CF-1, males, site: lung, lesion: adenoma, dosed 110 weeks, study length 124 weeks) of the same compound?
Its carcinogen call is “negative (inactive)”.

What about the carcinogen call (mouse, strain CF-1, males, site: lung, lesion: adenoma, dosed 112 weeks, study length 128 weeks) of the same compound?
Its carcinogen call is “negative (inactive)”.

What about the TD50 (mouse, strain CF-1, males, site: lung, lesion: adenoma, dosed 120 weeks, study length 134 weeks) of the same compound?
The TD50 was 2.13 mg/kg/day (inactive).

What about the carcinogen call (mouse, strain CF-1, males, site: lung, lesion: adenoma, dosed 128 weeks, study length 128 weeks) of the same compound?
Its carcinogen call is “negative (inactive)”.

And the carcinogen call (mouse, strain CF-1, males, site: lung, lesion: carcinoma, dosed 110 weeks, study length 124 weeks)?
Its carcinogen call is “negative (inactive)”.

What about the carcinogen call (mouse, strain CF-1, males, site: lung, lesion: carcinoma, dosed 112 weeks, study length 128 weeks) of the same compound?
The carcinogen call was “negative (inactive)”.

What about the TD50 (mouse, strain CF-1, males, site: lung, lesion: carcinoma, dosed 120 weeks, study length 134 weeks) of the same compound?
The TD50 was 3.71 mg/kg/day (inactive).

And the carcinogen call (mouse, strain CF-1, males, site: lung, lesion: carcinoma, dosed 128 weeks, study length 128 weeks)?
The carcinogen call was “negative (inactive)”.

What about the carcinogen call (mouse, strain CF-1, males, site: lung, lesion: one or several types, types not named, dosed 110 weeks, study length 110 weeks) of the same compound?
The carcinogen call was “negative (inactive)”.

And the carcinogen call (rat, strain CFE, females, site: any site (literature study), lesion: several types, types named in the paper, dosed 104 weeks, study length 104 weeks)?
The carcinogen call was “negative (inactive)”.

What about the TD50 (rat, strain CFE, males, site: any site (literature study), lesion: several types, types named in the paper, dosed 104 weeks, study length 104 weeks) of the same compound?
The TD50 was 2.01 mg/kg/day (inactive).

What about the TD50 (rat, strain Fischer 344, females, site: any site (literature study), lesion: several types, types named in the paper, dosed 105 weeks, study length 104 weeks) of the same compound?
The TD50 was 489 mg/kg/day (inactive).

What about the TD50 (rat, strain Fischer 344, males, site: any site (literature study), lesion: several types, types named in the paper, dosed 105 weeks, study length 104 weeks) of the same compound?
Its TD50 is 7.28 mg/kg/day (inactive).

What about the TD50 (rat, strain Not specified, females, site: any site (literature study), lesion: one or several types, types not named, dosed 104 weeks, study length 104 weeks) of the same compound?
Its TD50 is 57.2 mg/kg/day (inactive).

And the TD50 (rat, strain Not specified, males, site: any site (literature study), lesion: one or several types, types not named, dosed 104 weeks, study length 104 weeks)?
Its TD50 is 40.5 mg/kg/day (inactive).

What about the carcinogen call (rat, strain Osborne-Mendel, both sexes, site: any site (literature study), lesion: several types, types named in the paper, dosed 104 weeks, study length 104 weeks) of the same compound?
Its carcinogen call is “positive”.

And the TD50 (rat, strain Osborne-Mendel, females, site: adrenal gland, lesion: cortical adenoma + cortical carcinoma, dosed 90 weeks, study length 109 weeks)?
Its TD50 is 4.42 mg/kg/day (inactive).

What about the carcinogen call (rat, strain Osborne-Mendel, females, site: any site (literature study), lesion: several types, types named in the paper, dosed 90 weeks, study length 110 weeks) of the same compound?
Its carcinogen call is “negative (inactive)”.

And the carcinogen call (rat, strain Osborne-Mendel, females, site: any site (literature study), lesion: several types, types named in the paper, dosed 121 weeks, study length 126 weeks)?
Its carcinogen call is “negative (inactive)”.

And the TD50 (rat, strain Osborne-Mendel, females, site: liver, lesion: hepatocellular adenoma + hepatocellular carcinoma + neoplastic nodule, dosed 90 weeks, study length 110 weeks)?
Its TD50 is 38.4 mg/kg/day.

And the carcinogen call (rat, strain Osborne-Mendel, females, site: liver, lesion: one or several types, types not named, dosed 121 weeks, study length 126 weeks)?
The carcinogen call was “negative (inactive)”.

And the TD50 (rat, strain Osborne-Mendel, males, site: any site (literature study), lesion: several types, types named in the paper, dosed 90 weeks, study length 110 weeks)?
Its TD50 is 3.34 mg/kg/day (inactive).

And the carcinogen call (rat, strain Osborne-Mendel, males, site: any site (literature study), lesion: several types, types named in the paper, dosed 126 weeks, study length 126 weeks)?
The carcinogen call was “negative (inactive)”.

What about the carcinogen call (rat, strain Osborne-Mendel, males, site: liver, lesion: hemangioma, dosed 126 weeks, study length 126 weeks) of the same compound?
The carcinogen call was “negative (inactive)”.
